Assay results from PMC9558510 (Cancers, 2022).

Tests used:
[1] = Logistic regression of dose reduction/discontinuation vs predicted exposure; type: in vivo, human; conditions: logistic regression, standard dosing assumed
Protocol: (§1) Data were collected and processed using Microsoft Excel 2016 Version 16.0 (Microsoft Corporation, Redmond, WA, USA). Statistical calculations and visualization of results were performed with R Studio Version 1.2.5042 (RStudio Incorporation, Boston, MA, USA) running R version 4.0.5 (R Foundation for Statistical Computing, Vienna, Austria, 2020). For further analysis, serum concentrations were divided into groups according to time interval post-dose as follows: 0–5 h, 5–10 h, 10–14 h, and >14 h for (hydroxy-)dabrafenib and 0–10 h, 10–20 h, 20–30 h, and >30 h for trametinib. Concentrations < LLOQ were excluded from further statistical analyses. The concentrations of the same patient at the same dosage and within the same post-dose group were summarized into an individual mean serum concentration for descriptive statistical analysis to account for potential bias caused by the unbalanced number of samples per patient. […] The Wilcoxon […] test was used for unpaired samples. The correlations between individual PK parameters sampled from the conditional distribution during the generation of EBE (methods for estimation see below) and age, sex, body mass index (BMI), and co-medication were analyzed using analysis of variance (ANOVA) and Spearman’s correlation coefficient. Logistic regression was used to compare the risk of treatment discontinuations or dose reductions (dabrafenib dose reduction or discontinuation, trametinib dose reduction or discontinuation, or any dose reduction or discontinuation) with the corresponding predicted trough concentrations and area under the curve of a dosing interval (AUCτ) of dabrafenib, hydroxy-dabrafenib, and trametinib as well as with the composite predicted dabrafenib/hydroxy-dabrafenib trough concentration and with composite dabrafenib/hydroxy-dabrafenib AUCτ assuming standard dosing. The Hosmer–Lemeshow test was used to evaluate the goodness of fit for our logistic regression model. Due to the explorative nature of the study, p-values obtained from multiple comparisons were not corrected for multiple testing. A p-value < 0.05 was considered statistically significant.

[2] = Observed steady-state serum concentrations (LC-MS/MS) in melanoma patients; type: in vivo, human
Protocol: Serum samples were collected regularly during each routine outpatient visit from study enrollment until January 2022 or until treatment discontinuation. If possible, blood sampling was performed before the next drug administration, but any time interval between the last administration and blood withdrawal was accepted. The steady-state was assumed after continuous dosing for fourteen days for both compounds.
Hydroxy-dabrafenib concentrations were analyzed using a different previously published LC-MS/MS method with an LLOQ of 10 ng/mL [37]. […] Hydroxy-dabrafenib was not quantified in capillary blood samples as the methodology was not available at the time of analysis. All the methods have been validated according to the guidelines of the U.S. Food and Drug Administration and/or the European Medicines Agency.
as §1

[3] = Empirical Bayesian estimates of serum AUCτ and Cmin from serum samples with existing popPK models; conditions: steady state, 150 mg q12h dabrafenib
Protocol: For each compound, a popPK model developed by Balakirouchenane et al. was assessed regarding its suitability to create EBE using Monolix 2021R1 (Lixoft SAS, Antony, Fance). […] The predictive performance of the models was estimated by calculating the prediction error (PE), mean prediction error (MPE), mean absolute prediction error (MAPE), and mean relative deviation (MRD):(1) PEi[%]=Cpredicted,i−Cobserved,i/Cobserved,i·100 (2) MPE[%]=1/n∑i=1nPEi (3) MAPE[%]=1/n∑i=1n|PEi| (4) MRD=10^x;x=1/n∑i=1n(log10[Cpredicted,i]−log10[Cobserved,i])^2
Estimates for AUCτ were generated for every occasion for the standard doses (150 mg q12h for dabrafenib, 2 mg q24h for trametinib). In addition, the individual predicted Cmin at a steady state was generated since not all patients contributed trough samples. The same estimates were used in the logistic regression model.

[4] = serum, dabrafenib dose of 150 mg q12h
[5] = standard dose, BMI (kg/m2) < 30
[6] = standard dose, BMI (kg/m2) >= 30
[7] = standard dose, P-gp inducer: no
[8] = standard dose, P-gp inducer: yes
[9] = standard dose, P-gp inhibitor: no
[10] = standard dose, P-gp inhibitor: yes
[11] = standard dose, age above 65: no
[12] = standard dose, age above 65: yes
[13] = standard dose, moderate CYP2C8 inhibitor: no
[14] = standard dose, moderate CYP2C8 inhibitor: yes

- median of individual mean trough concentration [2, 4]: 76.0 ng/mL
- range of individual mean trough concentration [2, 4]: 37.2 to 171.0 ng/mL
- effect of co-medication with at least one P-gp inducer on individual mean trough concentrations ([2]; serum, standard dose): no effect
- serum Cmin mean [2, 5]: 73.6 ng/mL
- serum Cmin median [2, 5]: 72.9 ng/mL
- serum Cmin mean [2, 6]: 97.6 ng/mL
- serum Cmin median [2, 6]: 68.3 ng/mL
- serum Cmin mean [2, 7]: 101 ng/mL
- serum Cmin median [2, 7]: 90.9 ng/mL
- serum Cmin mean [2, 8]: 62.1 ng/mL
- serum Cmin median [2, 8]: 56.6 ng/mL
- serum Cmin mean [2, 9]: 100 ng/mL
- serum Cmin median [2, 9]: 78 ng/mL
- serum Cmin mean [2, 10]: 77.3 ng/mL
- serum Cmin median [2, 10]: 70.2 ng/mL
- serum Cmin mean ([2]; standard dose, PPI: no): 93.1 ng/mL
- serum Cmin median ([2]; standard dose, PPI: no): 78 ng/mL
- serum Cmin mean ([2]; standard dose, PPI: yes): 53.7 ng/mL
- serum Cmin median ([2]; standard dose, PPI: yes): 53.7 ng/mL
- serum Cmin mean [2, 11]: 92.7 ng/mL
- serum Cmin median [2, 11]: 77.6 ng/mL
- serum Cmin mean [2, 12]: 66.2 ng/mL
- serum Cmin median [2, 12]: 55.6 ng/mL
- serum Cmin mean [2, 13]: 89.4 ng/mL
- serum Cmin median [2, 13]: 78 ng/mL
- serum Cmin mean [2, 14]: 86.3 ng/mL
- serum Cmin median [2, 14]: 76.6 ng/mL
- serum Cmin mean ([2]; standard dose, sex female): 86 ng/mL
- serum Cmin median ([2]; standard dose, sex female): 68.3 ng/mL
- serum Cmin mean ([2]; standard dose, sex male): 77.3 ng/mL
- serum Cmin median ([2]; standard dose, sex male): 72.9 ng/mL
- median of the average predicted trough concentrations [3]: 84.5 ng/mL
- median of the average predicted AUCτ ([3]; average over all observations per patient): 6040 ng·h/mL
SMILES: CC(C)(CO)c1nc(-c2cccc(NS(=O)(=O)c3c(F)cccc3F)c2F)c(-c2ccnc(N)n2)s1 [hydroxy-dabrafenib]
- relationship between dose reduction or discontinuation due to AE and predicted serum trough concentrations or AUCτ [1]: no significant relationships
